Results taken from patent publication US10874743B2, “IRAK degraders and uses thereof” (Kymera Therapeutics, Inc., priority 2017, dated 2020).

How the values were obtained:
OCI-LY10 cells = test: OCI-LY-10 CTG cell viability assay (EC50); assay type: cell-based; conditions: Homo sapiens, 96 h, CellTiter-Glo cell viability, 4 days incubation, top concentration 10 μM, read-out: OCI-LY10 IRAK4 EC50
Protocol: A CTG cell viability assay using OCI-LY-10 cells was run to determine compound-mediated cell viability (EC50).
Compound-mediated viability effect on OCI-LY10 was quantitatively determined using the CellTiter-Glo® Luminescent Cell Viability Assay kit from Promega (Catalog number G7570) following manufacturer's recommended procedures. […] Compounds were then added to the assay plate with final top concentration of 10 μM and 1:3 dilution series with total of 9 doses. The final DMSO concentration was normalized to 0.2%. The assay plates were incubated at 37° C. for 4 days under 5% CO2. Then the assay plate was equilibrated at room temperature for 10 minutes. […] The data was then analyzed by software Prism 7.0 from GraphPad and the dose response curves were fit using a three-parameter logistic equation to calculate EC50.

IRAK4 = biological target: T1, IRAK4 (Homo sapiens, UniProt Q9NWZ3); test: OCI-LY-10 MSD assay for IRAK4 DC50; assay type: cell-based; design: endogenous in cells; host or cells: OCI-LY10; conditions: OCI-LY10 cells, 4 hr incubation, concentration required to degrade 50% of protein
T1 sequence (Q9NWZ3 1-460): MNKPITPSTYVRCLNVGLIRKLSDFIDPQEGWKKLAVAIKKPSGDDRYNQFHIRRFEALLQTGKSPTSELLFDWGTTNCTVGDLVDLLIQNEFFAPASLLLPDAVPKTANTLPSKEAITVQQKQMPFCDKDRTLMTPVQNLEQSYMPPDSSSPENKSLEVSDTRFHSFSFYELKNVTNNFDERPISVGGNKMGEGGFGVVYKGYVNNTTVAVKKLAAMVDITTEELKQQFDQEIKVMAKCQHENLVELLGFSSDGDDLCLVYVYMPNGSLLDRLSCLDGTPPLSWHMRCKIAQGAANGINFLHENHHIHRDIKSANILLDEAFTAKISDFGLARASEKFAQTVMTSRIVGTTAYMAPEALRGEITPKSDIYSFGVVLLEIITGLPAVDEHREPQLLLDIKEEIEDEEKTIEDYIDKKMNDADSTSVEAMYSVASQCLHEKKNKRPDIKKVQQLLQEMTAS
Procedure, shortened: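 OCI-Ly10 cells were exposed to compound for 4 hr across a 3-fold, 8-point dilution series. Lysates were made in RIPA buffer, and IRAK4 remaining was measured by MSD sandwich immunoassay with anti-IRAK4 capture and detection antibodies. DC50 was taken from a four-parameter logistic fit.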

Structure (SMILES)	EC50 (OCI-LY10 cells) [µM]	DC50 (IRAK4) [µM]
Cn1c(=O)n(C2CCC(=O)NC2=O)c2ccc(CCCOCCOCCNCc3ccc(-n4cc(NC(=O)c5coc(-c6ccnc(NCC7CC7)c6)n5)c(C(F)F)n4)cc3F)cc21 (centres unmarked) [I-539]	< 0.05	0.5 to 1
Cn1c(=O)n([C@H]2CCC(=O)NC2=O)c2ccc(CCCCOCCCCNCc3ccc(-n4cc(NC(=O)c5coc(-c6ccnc(NCC7CC7)c6)n5)c(C(F)F)n4)cc3)cc21 (single isomer, unassigned) [I-699]	< 0.05	0.1 to 0.5
CN(CCCOCCCc1cccc2c1oc(=O)n2C1CCC(=O)NC1=O)C(=O)c1ccc(-n2cc(NC(=O)c3coc(-c4ccnc(NCC5CC5)c4)n3)c(C(F)F)n2)cc1 (centres unmarked) [I-476]	0.1 to 0.5	< 0.05
O=C1CCC(n2c(=O)oc3c(CCCOCCCNC(=O)c4ccc(-n5cc(NC(=O)c6coc(-c7ccnc(NCC8CC8)c7)n6)c(C(F)F)n5)cc4)cccc32)C(=O)N1 (centres unmarked) [I-475]	< 0.05	< 0.05
O=C1CCC(n2c(=O)oc3c(CCCN4CCO[C@H](CNCc5ccc(-n6cc(NC(=O)c7coc(-c8ccnc(NCC9CC9)c8)n7)c(C(F)F)n6)cc5)C4)cccc32)C(=O)N1 (some centres unmarked) [I-590]	< 0.05	< 0.05
Cn1c(=O)n(C2CCC(=O)NC2=O)c2ccc(CNC(=O)COCCNCc3ccc(-n4cc(NC(=O)c5coc(-c6ccnc(NCC7CC7)c6)n5)c(C(F)F)n4)cc3)cc21 (centres unmarked) [I-543]	< 0.05	< 0.05
CN(CC(=O)N(C)CC(=O)N(C)CC(=O)N(C)CCCc1cccc2c1n(C)c(=O)n2C1CCC(=O)NC1=O)Cc1nn(C)cc1NC(=O)c1coc(-c2ccnc(NCC(F)(F)F)c2)n1 (centres unmarked) [I-525]	> 1	> 1
CN(CCCOCCCc1cccc2c1oc(=O)n2C1CCC(=O)NC1=O)C(=O)c1ccc(-n2cc(NC(=O)c3coc(-c4ccnc(NCC(F)(F)F)c4)n3)c(C(N)=O)n2)cc1 (centres unmarked) [I-495]	0.5 to 1	< 0.05
Cn1c(=O)n(C2CCC(=O)NC2=O)c2ccc(CCCOCCCNC(=O)c3ccc(-n4cc(NC(=O)c5coc(-c6ccnc(NCC7CC7)c6)n5)c(C(F)F)n4)cc3)cc21 (centres unmarked) [I-459]	< 0.05	< 0.05
O=C1CCC(n2c(=O)oc3c(CCCN4CCO[C@@H](CNCc5ccc(-n6cc(NC(=O)c7coc(-c8ccnc(NCC9CC9)c8)n7)c(C(F)F)n6)cc5)C4)cccc32)C(=O)N1 (some centres unmarked) [I-589]	< 0.05	< 0.05
Cn1cc(NC(=O)c2coc(-c3ccnc(NCC(F)(F)F)c3)n2)c(-c2cncc(C(=O)NCCOCCOCCCc3cccc4c3n(C)c(=O)n4C3CCC(=O)NC3=O)c2)n1 (centres unmarked) [I-472]	> 1	> 1
CN(Cc1ccc(-n2cc(NC(=O)c3coc(-c4ccnc(NCC5CC5)c4)n3)c(C(F)F)n2)cc1)C[C@@H]1CN(CCCc2ccc3c(c2)n(C)c(=O)n3C2CCC(=O)NC2=O)CCO1 (some centres unmarked) [I-599]	< 0.05	0.1 to 0.5
CN[C@@H](C)C(=O)N[C@H](C(=O)N1CCC[C@H]1c1nc(C(=O)c2cccc(OCCOCCOCCOCCOCCOCCNCc3ccc(-n4cc(NC(=O)c5coc(-c6ccnc(NCC7CC7)c6)n5)c(C(F)F)n4)cc3)c2)cs1)C1CCCCC1 [I-553]	> 1	0.5 to 1
Cn1c(=O)n(C2CCC(=O)NC2=O)c2ccc(CCCOCCCNCc3ccc(-n4cc(NC(=O)c5coc(-c6ccnc(NCC(F)(F)F)c6)n5)c(C(F)F)n4)cc3)cc21 (centres unmarked) [I-534]	> 1	< 0.05
O=C1CCC(n2c(=O)oc3cc(CCCOCCOCCNCc4ccc(-n5cc(NC(=O)c6coc(-c7ccnc(NCC8CC8)c7)n6)c(C(F)F)n5)cc4)ccc32)C(=O)N1 (centres unmarked) [I-550]	< 0.05	< 0.05
Cn1c(=O)n(C2CCC(=O)NC2=O)c2ccc(CNCCOCCNCc3ccc(-n4cc(NC(=O)c5coc(-c6ccnc(NCC7CC7)c6)n5)c(C(F)F)n4)cc3)cc21 (centres unmarked) [I-684, 2-[2-(cyclopropylmethylamino)-4-pyridyl]-N-[3-(difluoromethyl)-1-[4-[[2-[2-[[1-(2,6-dioxo-3-piperidyl)-3-methyl-2-oxo-benzimidazol-5-yl]methylamino]ethoxy]ethylamino]methyl]phenyl]pyrazol-4-yl]oxazole-4-carboxamide]	< 0.05	< 0.05
CN(CCCCOCCCCc1ccc2c(c1)n(C)c(=O)n2C1CCC(=O)NC1=O)C(=O)c1ccc(-n2cc(NC(=O)c3coc(-c4ccnc(NCC5CC5)c4)n3)c(C(F)F)n2)cc1 (centres unmarked) [I-491]	< 0.05	0.05 to 0.1
Cn1c(=O)n(C2CCC(=O)NC2=O)c2cccc(CCCN3CCO[C@@H](CNCc4ccc(-n5cc(NC(=O)c6coc(-c7ccnc(NCC8CC8)c7)n6)c(C(F)F)n5)cc4)C3)c21 (some centres unmarked) [I-588]	< 0.05	< 0.05
Cn1c(=O)n(C2CCC(=O)NC2=O)c2ccc(N3CCN(CCOCCNCc4ccc(-n5cc(NC(=O)c6coc(-c7ccnc(NCC8CC8)c7)n6)c(C(F)F)n5)cc4)CC3)cc21 (centres unmarked) [I-685]	< 0.05	< 0.05

Structure (SMILES)	EC50 (OCI-LY10 cells) [µM]	DC50 (IRAK4) [µM]
CN(CC(=O)N(C)CC(=O)N(C)CC(=O)N(C)CCCc1ccc2c(c1)n(C)c(=O)n2C1CCC(=O)NC1=O)Cc1ccc(-n2cc(NC(=O)c3coc(-c4ccnc(NCC(F)(F)F)c4)n3)c(C(N)=O)n2)cc1 (centres unmarked) [I-526]	> 1	–
Cn1c(=O)n(C2CCC(=O)NC2=O)c2ccc(CCCOCCNCc3ccc(-n4cc(NC(=O)c5coc(-c6ccnc(NCC7CC7)c6)n5)c(C(F)F)n4)cc3)cc21 (centres unmarked) [I-531]	< 0.05	–
CN(CCCCOCCCCc1ccc2c(c1)n(C)c(=O)n2C1CCC(=O)NC1=O)Cc1ccc(-n2cc(NC(=O)c3coc(-c4ccnc(NCC(F)(F)F)c4)n3)c(C(N)=O)n2)cc1 (centres unmarked) [I-578]	0.5 to 1	–
COCCOCCNCc1ccc(-n2cc(NC(=O)c3coc(-c4ccnc(NCC(F)(F)F)c4)n3)c(C(N)=O)n2)cc1 [I-597]	0.1 to 0.5	–
Cn1c(=O)n(C2CCC(=O)NC2=O)c2ccc(C#CCCN3CCC(CNCc4ccc(-n5cc(NC(=O)c6coc(-c7ccnc(NCC8CC8)c7)n6)c(C(F)F)n5)cc4)CC3)cc21 (centres unmarked) [I-582]	< 0.05	–
CN1C(=O)CCC(n2c(=O)n(C)c3c(CCCOCCOCCNCc4ccc(-n5cc(NC(=O)c6coc(-c7ccnc(NCC(F)(F)F)c7)n6)c(C(N)=O)n5)cc4)cccc32)C1=O (centres unmarked) [I-544]	> 1	–
Cn1c(=O)n(C2CCC(=O)NC2=O)c2ccc(CNC(=O)OCCCNCc3ccc(-n4cc(NC(=O)c5coc(-c6ccnc(NCC(F)(F)F)c6)n5)c(C(N)=O)n4)cc3)cc21 (centres unmarked) [I-563]	> 1	–
O=C1CCC(N2C[C@H](c3cccc(C#CCCOCCCNCc4ccc(-n5cc(NC(=O)c6coc(-c7ccnc(NCC8CC8)c7)n6)c(C(F)F)n5)cc4)c3)OC2=O)C(=O)N1 (some centres unmarked) [I-581]	0.1 to 0.5	–
Cc1ncsc1-c1ccc(CNC(=O)[C@@H]2C[C@@H](O)CN2C(=O)[C@@H](NC(=O)CCCCCCCCCCC(=O)N2CCN(c3ccn4ncc(C(=O)Nc5cn(C)nc5C(F)F)c4n3)CC2)C(C)(C)C)cc1 [I-483]	> 1	–
Cn1c(=O)n(C2CCC(=O)NC2=O)c2cccc(CCCOCCOCCNCc3ccc(-n4cc(NC(=O)c5cc(C#N)ccn5)c(C(N)=O)n4)cc3)c21 (centres unmarked) [I-527]	> 1	–
O=C1CCC(N2Cc3cc(CNC(=O)NCCOCCOCCNC(=O)n4cc(NC(=O)c5coc(-c6ccnc(NCC7CC7)c6)n5)c(C(F)F)n4)ccc3C2=O)C(=O)N1 (centres unmarked) [I-458]	0.05 to 0.1	–
CN(C)CCNC(=O)c1nn(-c2ccc(C(=O)NCCCCOCCCCc3ccc4c(c3)n(C)c(=O)n4C3CCC(=O)NC3=O)cc2)cc1NC(=O)c1coc(-c2ccnc(NCC(F)(F)F)c2)n1 (centres unmarked) [I-482]	0.1 to 0.5	–
Cn1cc(NC(=O)c2cnn3ccc(N4CCN(C(=O)COCCOCCOCCOCCNc5cccc6c5C(=O)N(C5CCC(=O)NC5=O)C6=O)CC4)nc23)c(C(F)F)n1 (centres unmarked) [I-467]	> 1	–
Cn1cc(NC(=O)c2cnn3ccc(N4CCN(C(=O)COCCOCCOCCNc5cccc6c5C(=O)N(C5CCC(=O)NC5=O)C6=O)CC4)nc23)c(C(F)F)n1 (centres unmarked) [I-468]	> 1	–
Cn1c(=O)n(C2CCC(=O)NC2=O)c2ccc(CCCN3CCO[C@@H](CNCc4ccc(-n5cc(NC(=O)c6cnn7ccc(N8CCNCC8)nc67)c(C(F)F)n5)cc4)C3)cc21 (some centres unmarked) [I-617]	0.5 to 1	–
Cn1cc(NC(=O)c2coc(-c3ccnc(NCC(F)(F)F)c3)n2)c(C(=O)NCCOCCOCCOCCOCCCc2cccc3c2n(C)c(=O)n3C2CCC(=O)NC2=O)n1 (centres unmarked) [I-455]	> 1	–
Cn1cc(NC(=O)c2coc(-c3ccnc(NCC(F)(F)F)c3)n2)c(C(=O)NC2CCN(CCOCCOCCOCCOCCCc3cccc4c3n(C)c(=O)n4C3CCC(=O)NC3=O)CC2)n1 (centres unmarked) [I-457]	> 1	–
CN(C)CCNC(=O)c1nn(-c2ccc(CNCCCCOCCCCc3ccc4c(c3)n(C)c(=O)n4C3CCC(=O)NC3=O)cc2)cc1NC(=O)c1coc(-c2ccnc(NCC(F)(F)F)c2)n1 (centres unmarked) [I-560]	> 1	–
